Test results from patent US20240392241A1, “METHOD FOR PRODUCING CELL MASS INCLUDING PITUITARY TISSUE AND CELL MASS” (SUMITOMO CHEMICAL COMPANY, LIMITED, priority 2021, published 2024).
Ends that are not written are not given here.

Experiments:
Format in all cases: cell-based
[1] = tested on: cell aggregates containing pituitary tissue from human ES cells (KhES-1 strain); experiment: ACTH stimulation/suppression test by CRH or dexamethasone in cell aggregates containing pituitary tissue (Example 14); details: 24 hr, cell aggregates on day 103
Protocol: Cell aggregates containing pituitary tissue were produced in the same manner as in Example 10, and ACTH secretory capacity was studied. 20 cell aggregates with different numbers of culture days after the start of suspension culturing were transferred to a 10 cm suspension culture dish containing 10 mL of serum-free medium supplemented with 20% KSR, and after culturing for 3-4 days at 37° C., the culture supernatant was recovered. The ACTH concentration in the recovered culture supernatant was measured by the ELISA method used in clinical testing (testing outsourced to SRL, Ltd.). As a result, ACTH secretion was observed from day 29 after the start of suspension culturing (23 pg/mL), and the amount of ACTH secretion increased remarkably as the number of days of culture increased (FIG. 17A).
Then, it was studied whether an increase in ACTH secretion by CRH and suppression of ACTH secretion by glucocorticoid were observed. Specifically, 20 cell aggregates on day 103 after the start of suspension culturing were transferred to a 10 cm suspension culture dish containing 10 mL of serum-free medium supplemented with 20% KSR, and after culturing for 24 hr under conditions of 37° C., […], the culture supernatant was recovered. […] The ACTH concentration in the recovered culture supernatant was measured as described above. […]

[2] = tested on: human iPS cell line 1231A3; experiment: Effect of substance reducing oxidative stress on pituitary organoid production, bright field observation (Example 6); details: 1 mM from day 10; day 30 of differentiation induction
[3] = tested on: human ES cells (KhES-1 strain); experiment: Concentration of IWP2, BMP4 and SAG, ACTH concentration in culture medium (Reference Example 3); details: combination: low (IWP2 0.5 μM, BMP4 0.5 nM, SAG 700 nM) vs high (IWP2 2 μM, BMP4 5 nM, SAG 2 μM); days 61-250
Protocol: Then, for the purpose of examining the optimal concentrations of IWP2, BMP4, and SAG to be added in each step, two groups of a high concentration group (IWP2; 2 μM, BMP4; 5 nM, SAG; 2 μM) and a low concentration group (IWP2; 0.5 μM, BMP4; 0.5 nM, SAG; 700 nM) were established, and a comparative study was conducted using the ACTH concentration in the culture medium on days 61, 103, 152, 201, and 250 of differentiation induction as an indicator. Using human ES cells (KhES-1 strain) and according to step shown in FIG. 9A, a cell population including cells that constitute pituitary tissue was produced. Using the method described in Example 4, the concentration of ACTH in the medium was measured.

[4] = tested on: human ES cells (RAX::Venus knock-in KhES-1 strain); experiment: Addition period of IWP2, SB431542 and BMP4, immunostaining of PITX1, LHX3, E-cadherin on day 29 (Reference Example 2); details: IWP2 (2 μM) and SB431542 (1 μM) added day 0 to day 29 and BMP4 (5 nM) day 2 to day 6, vs other addition periods
Protocol: After performing step a, suspension culturing was performed in a medium containing a Wnt signal inhibitor IWP2 (2 μM) and a TGFβ signal inhibitor SB431542 (1 μM) in addition to BMP4 (5 nM) and SAG (100 nM (step (1)) or 2 μM (step (2)). IWP2 and SB431542 were added during the period from day 0 to day 6 after the start of suspension culturing (FIG. 8B-1), from day 0 to day 12 after the start of suspension culturing (FIG. 8B-2), or from day 0 to day 29 after the start of suspension culturing (FIG. 8B-3). BMP4 was added during the period from day 2 to day 6 after the start of suspension culturing (upper panel of each of FIGS. 8B-1 to -3) or from day 2 to day 18 after the start of suspension culturing (lower panel of each of FIGS. 8B-1 to -3). Using cell aggregates on day 29 after the start of suspension culturing, cryosections were prepared in the same manner as in Example 3. These cryosections were subjected to immunostaining using PITX1 (anti-Pitx1 antibody, homemade) and antibody against epithelial cell marker E-cadherin (manufactured by Takara Bio Inc.). As a result, it was confirmed that the outside of the aggregate was a nonneural epithelial tissue that was positive for PITX1 and E-cadherin, and the inside was a neural epithelial tissue that was positive for RAX::Venus (FIGS. 8B-1 to -3).
The scale bar at the bottom right of FIGS. 8B-1 to -3 indicates 200 μm.

[5] = tested on: human iPS cells (201B7 strain); experiment: SAG addition period and ACTH secretion capacity of cell aggregates (Example 9); details: stopping SAG treatment 30 days after start of differentiation induction vs continued SAG treatment
Protocol: Using human iPS cells (201B7 strain) and according to the steps shown in FIG. 12A, cell aggregates were produced. Regarding the SAG treatment period, two groups of a group in which SAG is added from immediately after the start of differentiation induction until day 30, and a group in which SAG is added from immediately after the start of differentiation induction and after day 30 (until day 61, until day 103, and until day 131) were set, and the ACTH secretion capacity was compared. ACTH was measured by a method similar to that in Example 4.

[6] = tested on: human iPS cells (1231A3 strain); experiment: Timing of BMP4 addition under JNK inhibitor addition conditions, oblique illumination observation (Example 17); details: BMP4 added after 24 hr (day 1) vs about 48 hr (day 2); JNK inhibitor present; day 28
Protocol: In Example 17, a cell population containing cells constituting pituitary tissue was produced according to the steps shown in FIG. 20A. Specifically, human iPS cells (1231A3 strain, obtained from RIKEN) were cultured under feeder-free conditions according to the method described in Scientific Reports, 4, 3594 (2014). As the feeder-free medium, StemFit medium was used and, as the feeder-free scaffold, Laminin 511-E8 was used.
Differentiation induction was performed under the same conditions as in Example 1, except that the addition conditions of BMP4 and the final concentration of IWP-2 were changed to 1 μM. As a condition for adding BMP4, step (2) was performed about 24 hr (day 1) and about 48 hr (day 2) after the start of differentiation induction.
On day 28 after the start of suspension culturing, oblique illumination observation was performed using an inverted fluorescence microscope (BIOREVO BZ-X800, manufactured by Keyence Corporation) (FIG. 20B). As a result, pituitary organoid with placode-like pituitary tissue observed as a thick, highly transparent epithelium on the surface of the cell mass was formed, under both BMP4 addition conditions of about 24 hr (day 1) and about 48 hr (day 2) after the start of differentiation induction. […]

Molecule | ACTH concentration in the culture medium, low concentration group vs high concentration group [3] | formation of PITX1-positive and E-cadherin-positive nonneural epithelial tissue [4] | also measured
CRH: CRH (manufactured by Nipro ES Pharma) used to stimulate ACTH secretion (SEEPPISLDLTFHLLREVLEMARAEQLAQQAHSNRKLMEII; ends and bridges not checked; UniProt P06850 154-194, looked up) |  |  | increase of ACTH secretion amount ([1]; 5 μg/mL): about 3 times
CC(=O)N[C@@H](CS)C(=O)O [NAC, N-acetylcysteine] |  |  | cell masses smaller in diameter than in the non-addition conditions [2]: about 50 μm; proliferation of unintended cells [2]: suppressed
Cc1ccc2nc(NC(=O)CSc3nc4c(c(=O)n3-c3ccccc3)SCC4)sc2c1 [IWP2, N-(6-Methyl-2-benzothiazolyl)-2-[(3,4,6,7-tetrahydro-4-oxo-3-phenylthieno[3,2-d]pyrimidin-2-yl)thio]acetamide] | higher | highest probability | 
C[C@@H]1C[C@H]2[C@@H]3CCC4=CC(=O)C=C[C@]4(C)[C@@]3(F)[C@@H](O)C[C@]2(C)[C@@]1(O)C(=O)CO [DX, dexamethasone] |  |  | reduction of the amount of ACTH secretion ([1]; 500 ng/mL): about 40%
CNC1CCC(N(Cc2cccc(-c3ccncc3)c2)C(=O)c2sc3ccccc3c2Cl)CC1 (stereo not drawn) [SAG, N-Methyl-N′-(3-pyridinylbenzyl)-N′-(3-chlorobenzo[b]thiophene-2-carbonyl)-1,4-diaminocyclohexane] | higher |  | ACTH secretion capacity [5]: improved
NC(=O)c1ccc(-c2nc(-c3ccc4c(c3)OCO4)c(-c3ccccn3)[nH]2)cc1 [SB431542, 4-[4-(3,4-Methylenedioxyphenyl)-5-(2-pyridyl)-1H-imidazol-2-yl]benzamide] |  | highest probability | 
BMP4: BMP signal transduction pathway activating substance (protein, UniProt P12644 293-408, looked up) Bone morphogenetic protein 4: SPKHHSQRARKKNKNCRRHSLYVDFSDVGWNDWIVAPPGYQAFYCHGDCPFPLADHLNSTNHAIVQTLVNSVNSSIPKACCVPTELSAISMLYLDEYDKVVLKNYQEMVVEGCGCR | higher | highest probability | size of the pituitary organoids formed [6]: more uniform
